Assay results from patent US9284283B2, “Macrocyclic compounds for modulating IL-17” (ENSEMBLE THERAPEUTICS CORPORATION, priority 2012, dated 2016).

What follows are compounds tested against T1, biotinylated human IL-17 (binding to IL17R/Fc) (Homo sapiens, UniProt Q16552) (assay: IL-17 competition ELISA II (captured IL17R/Fc, biotinylated IL-17)).
T1 construct: purchased R&D Systems 317-ILB (IL-17, biotinylated); 177-IR (IL17R/Fc)
T1 sequence (Q16552 20-155 limits assumed): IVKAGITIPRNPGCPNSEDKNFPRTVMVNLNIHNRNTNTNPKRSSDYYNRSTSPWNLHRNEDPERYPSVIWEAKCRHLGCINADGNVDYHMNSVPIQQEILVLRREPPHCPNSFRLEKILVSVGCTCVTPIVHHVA
Description: In this version, a high binding 96-well plate (Costar #9018) was coated with 20 nM of goat anti-human IgG (KPL 01-10-02) in PBS, 100 μL/well, for 30 min at 37° C. followed by 5 min at 4° C. The plate was then washed in PBST (PBS/0.05% Tween-20) on a plate washer, (BioTek ELx450) then blocked with protein-free blocking buffer (Thermo Scientific #37573) in 250 μL/well for 30 min on a shaker at room temperature, and then washed again. IL17R/Fc (R&D Systems #177-IR; 10 nM in PBST, 100 μL/well) was then added to all wells. The plate was then incubated for 30 minutes at room temperature on the shaker.
While the receptor capture step was underway, compound dilutions were prepared in PBST to a concentration of 1 μM in 1.5 mL tubes. After the receptor capture step, the plate was washed and 50 μL PBST was added to the wells in row B down to row H. Then, 62.5 μL of the 1 μM compound dilutions were added to the wells of row A. From row A, 12.5 μL of the compound solution was removed and added to row B with mixing and this process of 5-fold dilutions was continued, by row, to row G. One of the wells in row A received only PBST (62.5 μL) and this dilution series served as the no competitor control. Then, going up from row G to row A, 50 μL of b-IL-17 (biotinylated human IL-17, R&D Systems #317-ILB; 20 nM) was added to all wells. Row H received 50 μL of PBST and served as the blank row, i.e., no compound and no b-IL-17. The plate was then incubated for 30 minutes at room temperature on the shaker.
After the wash, 100 μL Streptavidin-Horseradish Peroxidase (SA-HRP) (KPL #14-30-00) at 25 ng/mL in PBST was added to each well in the plate and the plate incubated for 30 minutes at room temperature followed by wash and 100 μL SureBlue™ TMB (KPL #52-00-03). After sufficient color development (approx 3-6 minutes), the reaction was fixed by the addition of 100 μL/well 0.5 N HCl and absorbance was measured at 450 nm on a BioTek Synergy 2 plate reader. The absorbances of ‘no competitor’ control and blank control should not exceed 1.5 A.U. and 0.06 A.U., respectively.
Data was processed using BioAssay Enterprise v10.1.4 (CambridgeSoft) software. Linear OD λ450 were plotted against log concentration (x) and fitted to a 4-parameter logistic equation. IC50 was calculated using positive ‘no competitor’ control data as an upper limit and blank control as a lower limit in each assay.
With `CN1C(=O)CC2(CCCC2)CC(=O)NCCOCCOCCNC(=O)[C@H]1Cc1ccc(NC(=O)[C@H](Cc2ccccc2Cl)NC(=O)C2(c3ccc(F)cc3)CC2)cc1` [Compound 504] the IC50 was 100 to 1000 nM. Compound `O=C1CC2(CCCC2)CC(=O)N[C@H](Cc2ccc(NC(=O)[C@H](Cc3ccccc3Cl)NC(=O)Cc3cccc(O)c3)cc2)C(=O)NCCNCCN1` [Compound 466] has an IC50 of under 100 nM. Compound `CC(=O)N[C@H](C(=O)Nc1ccc(C[C@H]2NC(=O)CC3(CCCC3)CC(=O)OCCCCCNC(=O)CNC2=O)cc1)C1CCCCC1` [Compound 673] has an IC50 of under 100 nM. With `O=C1CC2(CCCC2)NC(=O)CCCCNC(=O)[C@@H](Cc2ccc(NC(=O)[C@H](Cc3ccccc3Cl)NC(=O)C(F)(F)c3ccccc3)cc2)N1` [Compound 652] the IC50 was 100 to 1000 nM. For `C[C@H]1NC(=O)[C@@H](CCCNC(=O)[C@H](Cc2ccccc2Cl)NC(=O)Cc2ccc(F)cc2)NC(=O)CC2(CCCC2)CC(=O)NCCCCCNC1=O` [Compound 607], the IC50 was over 10000 nM. Compound `COC(=O)N[C@H](C(=O)Nc1ccc(C[C@H]2NC(=O)CC3(CCCC3)CC(=O)NCCOCCOCCNC2=O)cc1)C1CCCCC1` [Compound 632] has an IC50 of 100 to 1000 nM. For `C[C@H]1NC(=O)[C@@H](Cc2ccc(NC(=O)[C@H](Cc3ccccc3Cl)NC(=O)C(F)(F)c3ccccc3)cc2)NC(=O)CC2(CCCC2)NC(=O)CCNC(=O)CCN(C)C1=O` [Compound 636], the IC50 was under 100 nM. `CN1C(=O)CC2(CCCC2)CC(=O)NCCCCC#CCNC(=O)[C@H]1Cc1ccc(NC(=O)[C@H](Cc2ccccc2Cl)NC(=O)C2(c3ccc(F)cc3)CC2)cc1` [Compound 498] was tested, and the IC50 was 1000 to 10000 nM. Compound `CC(C)OC(=O)N[C@@H](Cc1ccccc1Cl)C(=O)Nc1ccc(C[C@H]2NC(=O)CC3(CCCC3)CC(=O)NCCOCCOCCNC2=O)cc1` [Compound 580] has an IC50 of under 100 nM. Work on `C[C@H]1NC(=O)[C@@H](Cc2ccc(NC(=O)[C@@H](NC(=O)C(F)(F)c3ccccc3)C3CCCCC3)cc2)NC(=O)CC2(CCCC2)CC(=O)N(C)CCOCCN(C)C1=O` [Compound 602] yielded an IC50 of under 100 nM. `O=C1CC2(CCCC2)CC(=O)N[C@H](Cc2ccc(NC(=O)[C@@H](NC(=O)c3ccncc3)C3CCCCC3)cc2)C(=O)N[C@H](Cc2ccccn2)C(=O)NCCCCCN1` [Compound 436] gave an IC50 of 100 to 1000 nM. `O=C1CC2(CCCC2)CC(=O)N[C@H](Cc2ccc(NC(=O)[C@H](Cc3ccccc3Cl)NC(=O)Cc3ccccc3)cc2)C(=O)NCCCCN1` [Compound 391] was tested, and the IC50 was under 100 nM. In the case of `C[C@H]1NC(=O)[C@@H](CCNC(=O)[C@H](Cc2ccccc2Cl)NC(=O)C(F)(F)c2ccccc2)NC(=O)CC2(CCCC2)CC(=O)NCCCCCNC1=O` [Compound 610], the IC50 is reported as over 10000 nM. For `C[C@H]1NC(=O)[C@@H](Cc2ccc(NC(=O)[C@@H](Cc3ccccc3Cl)NC(=O)Cc3ccc(F)cc3)cc2)NC(=O)[C@@H]2CC[C@@H](C2)C(=O)NCCCCCNC1=O` [Compound 564], the IC50 was 100 to 1000 nM. For `C[C@H]1NC(=O)[C@@H](Cc2ccc(NC(=O)[C@H](Cc3ccccc3Cl)NC(=O)c3cncc4ccccc34)cc2)NC(=O)CC2(CCCC2)CC(=O)NCCCCCNC1=O` [Compound 429], the IC50 was under 100 nM. With `C[C@H]1NC(=O)[C@@H](CCCCNC(=O)[C@H](Cc2ccccc2Cl)NC(=O)C(F)(F)c2ccccc2)NC(=O)CC2(CCCC2)CC(=O)NCCCCCNC1=O` [Compound 606] the IC50 was over 10000 nM. `O=C1CC2(CCCC2)CC(=O)N[C@H](Cc2ccc(NC(=O)[C@H](Cc3ccccc3Cl)NC(=O)C3(c4ccc(F)cc4)CC3)cc2)C(=O)N[C@H](CO)C(=O)NCCCCCN1` [Compound 482] showed an IC50 of under 100 nM. `O=C1CNC(=O)[C@@H](Cc2ccc(NC(=O)[C@H](Cc3ccccc3Cl)NC(=O)C(F)F)cc2)NC(=O)CC2(CCCC2)CC(=O)OCCCCCN1` [Compound 675] gave an IC50 of under 100 nM. In the case of `O=C1CNC(=O)[C@H](Cc2ccc(NC(=O)[C@H](Cc3ccccc3Cl)NC(=O)Cc3ccccc3)cc2)NC(=O)CC2(CCCC2)CC(=O)NCCCCCN1` [Compound 519], the IC50 is reported as under 100 nM. Work on `O=C1CNC(=O)[C@H](Cc2ccc(NC(=O)[C@@H](Cc3ccccc3Cl)NC(=O)Cc3ccccc3)cc2)NC(=O)CC2(CCCC2)CC(=O)N[C@@H](C(=O)O)CCCCN1` [Compound 454] yielded an IC50 of 1000 to 10000 nM. Compound `CN1CCOCCN(C)C(=O)[C@@H](Cc2cccnc2)NC(=O)[C@@H](Cc2ccc(NC(=O)[C@@H](NC(=O)C(F)(F)c3ccccc3)C3CCCCC3)cc2)NC(=O)CC2(CCCC2)CC1=O` [Compound 650] has an IC50 of under 100 nM. For `C[C@H]1NC(=O)[C@@H](Cc2ccc(NC(=O)[C@H](Cc3ccccc3Cl)NC(=O)C(F)(F)c3ccccc3)cc2)NC(=O)CC2(CCCC2)CC(=O)NCCN2CCN(CC2)C1=O` [Compound 533], the IC50 was 100 to 1000 nM. For `C[C@H]1NC(=O)[C@@H](Cc2ccc(NC(=O)[C@H](Cc3ccccc3Cl)NC(=O)Cc3cccc(O)c3)cc2)NC(=O)CC2(CCCC2)CC(=O)NCCCCCNC1=O` [Compound 483], the IC50 was under 100 nM. `CN1CCCCCNC(=O)[C@@H]2CCCN2C(=O)[C@@H](Cc2ccc(NC(=O)[C@H](Cc3ccccc3)N(C)C(=O)c3ccccc3)cc2)N(C)C(=O)CC2(CCCC2)CC1=O` [Compound 383] showed an IC50 of 1000 to 10000 nM. `CCOC(=O)N[C@@H](Cc1ccccc1Cl)C(=O)Nc1ccc(C[C@H]2NC(=O)CC3(CCCC3)CC(=O)NCCCCCNC(=O)[C@@H](C)NC2=O)cc1` [Compound 577] gave an IC50 of under 100 nM. `C[C@H]1NC(=O)[C@@H](Cc2ccc(NC(=O)[C@H](Cc3ccccc3Cl)NC(=O)C(F)(F)c3ccccc3)cc2)NC(=O)CC2(CCCC2)NC(=O)CCNC(=O)CCNC1=O` [Compound 635] was tested, and the IC50 was under 100 nM. With `O=C1CC2(CCCC2)CC(=O)N[C@H](Cc2ccc(NC(=O)[C@H](Cc3ccccc3Cl)NC(=O)[C@H](O)c3ccccc3)cc2)C(=O)NCCOCCOCCN1` [Compound 545] the IC50 was under 100 nM. Compound `O=C1CNC(=O)[C@H](Cc2ccc(NC(=O)[C@@H](Cc3ccccc3Cl)NC(=O)Cc3ccccc3)cc2)NC(=O)CC2(CCCC2)CC(=O)NCCCCCN1` [Compound 452] has an IC50 of 1000 to 10000 nM. Work on `O=C1CC2(CCCC2)CC(=O)N[C@H](Cc2ccc(NC(=O)[C@H](Cc3ccccc3Cl)NC(=O)c3ccccc3O)cc2)C(=O)NCCOCCOCCN1` [Compound 537] yielded an IC50 of under 100 nM. Compound `O=C1CC2(CCCC2)CC(=O)N[C@H](Cc2ccc(NC(=O)[C@H](Cc3ccccc3Cl)NC(=O)[C@@H](O)c3ccccc3)cc2)C(=O)NCCOCCOCCN1` [Compound 544] has an IC50 of under 100 nM. Compound `COC(=O)[C@@H]1CCCCNC(=O)CNC(=O)[C@@H](Cc2ccc(NC(=O)[C@H](Cc3ccccc3Cl)NC(=O)NCc3ccccc3)cc2)NC(=O)CC2(CCCC2)CC(=O)N1` [Compound 459] has an IC50 of under 100 nM. `O=C1CC2(CCCC2)CC(=O)N[C@H](Cc2ccc(NC(=O)[C@H](Cc3ccc(F)cc3Cl)NC(=O)C(F)(F)c3ccccc3)cc2)C(=O)NCCOCCOCCN1` [Compound 530] showed an IC50 of under 100 nM. `NCCCC[C@H]1NC(=O)[C@@H](Cc2ccc(NC(=O)[C@H](Cc3ccccc3Cl)NC(=O)Cc3ccccc3)cc2)NC(=O)CC2(CCCC2)CC(=O)NCCCCCNC1=O` [Compound 432] was tested, and the IC50 was under 100 nM. In the case of `C[C@H]1NC(=O)[C@@H](Cc2ccc(NC(=O)[C@H](Cc3ccccc3Cl)NC(=O)[C@H](O)c3ccccc3)cc2)NC(=O)CC2(CCCC2)CC(=O)N(C)CCOCCN(C)C1=O` [Compound 583], the IC50 is reported as under 100 nM. `C[C@H]1NC(=O)[C@@H](Cc2ccc(NC(=O)[C@H](Cc3ccccc3Cl)NC(=O)C(=O)c3ccccc3)cc2)NC(=O)CC2(CCCC2)CC(=O)N(C)CCN(C)CCN(C)C1=O` [Compound 573] showed an IC50 of under 100 nM. Compound `C[C@H]1NC(=O)[C@@H](Cc2ccc(NC(=O)[C@@H](Nc3nc4ccccc4o3)C3CCCCC3)cc2)NC(=O)CC2(CCCC2)CC(=O)N(C)CCCCCN(C)C1=O` [Compound 665] has an IC50 of under 100 nM. `CN(C)c1ccc(CC(=O)N[C@H](C(=O)Nc2ccc(C[C@H]3NC(=O)CC4(CCCC4)CC(=O)NCCOCCOCCNC3=O)cc2)C2CCCCC2)cc1` [Compound 596] gave an IC50 of under 100 nM. `O=C1CC2(CCCC2)CC(=O)N[C@H](Cc2ccc(NC(=O)[C@H](Cc3ccccc3Cl)NC(=O)C(F)(F)c3ccccc3)cc2)C(=O)NCCN2CCN(CCN1)CC2` [Compound 531] gave an IC50 of 100 to 1000 nM. Compound `C[C@H]1NC(=O)[C@@H](Cc2ccc(NC(=O)[C@H](Cc3ccccc3Cl)NC(=O)Cc3ccc(F)cc3)cc2)NC(=O)CC2(CCOCC2)NC(=O)CCCCCCNC1=O` [Compound 622] has an IC50 of 100 to 1000 nM. Work on `Cc1ccc(C[C@H](NC(=O)C2(c3ccc(F)cc3)CC2)C(=O)Nc2ccc(C[C@H]3NC(=O)CC4(CCCC4)CC(=O)NCCOCCOCCNC3=O)cc2)c(C)c1` [Compound 510] yielded an IC50 of 100 to 1000 nM.
